Reference: US12076304B2, “Compositions comprising 15-HEPE and methods of treating or preventing hematologic disorders, and/or related diseases” (priority 2020, dated 2024)
“Also recorded” adds a separate entry of the source.

Key:
Format in all cases: in vivo
UUO mice = test: UUO mice: body weight, kidney weight, general condition; conditions: n = 8
Description: UUO Surgery: On day 0 of the study, UUO surgery was performed on mice under pentobarbital sodium anesthesia. The mouse's hair was first shaved and then abdomen cut open to exteriorize the mouse's left ureter. The ureter was ligated 4-0 nylon sutures at two points. The mouse's peritoneum and skin were then closed with sutures, and the mouse transferred to a clean cage until recovered from the anesthesia. Sham operated mice had their left ureter exposed but not ligated. […]
Animals: Seven-week-old female C57BL/6 mice (i.e., animals) were obtained from Japan SLC, Inc. (Japan) and were housed and fed with a normal diet (CE-2; CLEA Japan, Japan) under controlled conditions. The animals were maintained in a specific-pathogen free (SPF) facility under controlled conditions of temperature (e.g., 23±2° C.), humidity (e.g., 45±10%), lighting (e.g., 12-hour artificial light and dark cycles; light from 8:00 to 20:00) and air exchange. A high pressure was maintained in the experimental room to prevent contamination of the facility. The animals were housed in TPX cages (CLEA Japan) with a maximum of 4 mice per cage. Sterilized Paper-Clean (Japan SLC) was used for bedding and replaced once a week. Sterilized solid normal diet was provided ad libitum, being placed in a metal lid on the top of the cage. Pure water was also provided ad libitum from a water bottle equipped with a rubber stopper and a sipper tube. Water bottles were replaced once a week, cleaned, and sterilized in an autoclave and reused. Mice were identified by ear punch and each cage was labeled with a specific identification code.
Animal Monitoring and Sacrifice: The viability, clinical signs and behavior for the mice were monitored daily. Individual body weight was measured daily before treatment during the treatment period. […] The animals were sacrificed by exsanguination through direct cardiac puncture under isoflurane anesthesia (Pfizer Inc.) at Day 14.

[1] = test system: UUO-induced renal interstitial fibrosis; test: UUO mice: kidney hydroxyproline content; conditions: for Kidney hydroxyproline: n = 8
Description: Measurement of Kidney Biochemistry: To quantify kidney hydroxyproline content, frozen left kidney samples were processed by an alkaline-acid hydrolysis method as follows: kidney samples were dissolved in 2 normal (N) sodium hydroxide (NaOH) at 65° C. and autoclaved at 121° C. for 20 minutes. The lysed samples (400 μL) were acid-hydrolyzed with 400 μL of 6N hydrochloride acid (HCl) at 121° C. for 20 minutes, and neutralized with 400 μL of 4N NaOH containing 10 mg/mL of activated carbon. An AC buffer (e.g., 2.2M acetic acid/0.48M citric acid, 400 μL) was added to the samples, followed by centrifugation to collect the supernatant. A standard curve of hydroxyproline was constructed with serial dilutions of trans-4-hydroxy-L-proline (Sigma-Aldrich, USA) starting at 16 μg/mL. The prepared samples and standards (e.g., each 400 μL) were mixed with 400 μL chloramine T solution (Wako Pure Chemical Industries, Japan) and incubated for 25 minutes at room temperature. The samples were then mixed with Ehrlich's solution (e.g., 400 μL) and heated at 65° C. for 20 minutes to develop the color. After samples were cooled on ice and centrifuged to remove precipitates, the optical density of each supernatant was measured at 560 nanometers (nm). The concentrations of hydroxyproline were calculated from the hydroxyproline standard curve. Protein concentrations of kidney samples were determined using a bicinchoninic (BCA) protein assay kit (Thermo Fisher Scientific, USA) and used to normalize the calculated hydroxyproline values. Kidney hydroxyproline contents were expressed as microgram (μg) per mg protein.
Sample Collection: For serum samples, non-fasting blood was collected in serum separate tubes without anticoagulant through direct cardiac puncture and centrifuged at 3,500×g for 4 minutes at 4° C. The supernatant was collected and stored at −80° C. for shipping. For kidney samples, the left kidney was collected and cut into 2 pieces horizontally. […] Paraffin blocks were stored at room temperature for histological analyses. […] The anterior part of left kidney was snap frozen in liquid nitrogen and stored at −80° C. for gene expression assay. The posterior part of left kidney was snap frozen in liquid nitrogen and stored at −80° C. for kidney biochemistry.

[2] = test system: UUO-induced renal interstitial fibrosis; test: UUO mice: Sirius red staining of kidney sections, fibrosis area; conditions: for Sirius red-positive area / Sirius red-positive area (%) _Median: UUO mice kidney, Day 14, n = 8; for Sirius red-positive area: mean ± SD; for fibrosis area compared with the Vehicle group: UUO mice
Description: Histopathological analysis: To visualize collagen deposition, kidney sections were stained using picro-Sirius red solution (Waldeck, Germany). For quantification of interstitial fibrosis area, bright field images in the corticomedullary region were captured using a digital camera (e.g., DFC295; Leica Microsystems, Germany) at 200-fold magnification, and the positive areas in 5 fields/section were measured using ImageJ software (National Institute of Health, USA).

TIMP-1 mRNA = test: UUO mice kidney quantitative RT-PCR, TIMP-1
Description: (§1) Quantitative RT-PCR: Total ribonucleic acid (RNA) was extracted from kidney samples using RNAiso (Takara Bio, Japan) according to the manufacturer's instructions. One μg of RNA was reverse-transcribed using a reaction mixture containing […] (mM) of magnesium chloride (MgCl2) (F. Hoffmann-La Roche, Switzerland), 40 U RNase inhibitor (Toyobo, Japan), 0.5 mM dNTP (Promega, USA), 6.28 μM random hexamer (Promega), 5× first strand buffer (Promega), 10 mM dithiothreitol (Invitrogen, USA) and 200 U MMLV-RT (Invitrogen) in a final volume of 20 μL. The reaction was carried out for 1 hour at 37° C., followed by 5 minutes at 99° C. Real-time PCR was performed using real-time PCR DICE and TB Green™ Premix Ex Taq™ II (Takara Bio). To calculate the relative […] (mRNA) expression level, the expression of each gene (e.g., α-SMA, TIMP-1, TGF-β and Collagen Type 1) was normalized to that of reference gene 36B4 (gene symbol: Rplp0). Information regarding the PCR-primer sets and the plate layout are described in Tables 1 and 2.

TGF-β mRNA = test: UUO mice kidney quantitative RT-PCR, TGF-β
Description: as §1

Collagen Type 1 mRNA = test: UUO mice kidney quantitative RT-PCR, Collagen Type 1
Description: as §1

[3] = 50 mg/kg PO QD Day 0-13, Day 14, mean ± SD
[4] = 500 mg/kg PO QD Day 0-13, Day 14, mean ± SD
[5] = 50 mg/kg PO QD Day 0-13, Mann-Whitney U test, trend p<0.1, 50 mg/kg
[6] = 50 mg/kg PO QD Day 0-13, normalized to 36B4, Sham 1.00, mean ± SD
[7] = 500 mg/kg PO QD Day 0-13, normalized to 36B4, Sham 1.00, mean ± SD
[8] = 5 mg/kg PO QD Day 0-13, Day 14, mean ± SD
[9] = 250 mg/kg PO QD Day 0-13, Day 14, mean ± SD
[10] = 5 mg/kg PO QD Day 0-13, normalized to 36B4, Sham 1.00, mean ± SD
[11] = 250 mg/kg PO QD Day 0-13, normalized to 36B4, Sham 1.00, mean ± SD

15-HEPE [DS102]
Left Kidney Weight (UUO mice; [3]): 469 ± 60 mg
Right Kidney Weight (UUO mice; [3]): 133 ± 10 mg
Left Kidney Weight (UUO mice; [4]): 487 ± 108 mg
Right Kidney Weight (UUO mice; [4]): 136 ± 6 mg
Kidney hydroxyproline [1, 3]: 8.47 ± 2.08 μg/mg total protein
kidney hydroxyproline contents compared with the Vehicle group ([1]; 50 mg/kg PO QD Day 0-13, significance p<0.05, 50 mg/kg): significant decrease
Kidney hydroxyproline [1, 4]: 8.59 ± 1.99 μg/mg total protein
kidney hydroxyproline contents compared with the Vehicle group ([1]; 500 mg/kg PO QD Day 0-13, significance p<0.05): significant decreases
Sirius red-positive area ([2]; 50 mg/kg PO QD Day 0-13): 5.01 ± 3.11%
Sirius red-positive area (%) _Median ([2]; 50 mg/kg PO QD Day 0-13): 4.19 ± 3.33%
Sirius red-positive area ([2]; 500 mg/kg PO QD Day 0-13): 4.01 ± 1.92%
Sirius red-positive area (%) _Median ([2]; 500 mg/kg PO QD Day 0-13): 3.08 ± 1.16%
fibrosis area compared with the Vehicle group [2, 5]: tended to decrease; also recorded: reduction trend
fibrosis area compared with the Vehicle group ([2]; 500 mg/kg PO QD Day 0-13, Mann-Whitney U test, trend p<0.1, 500 mg/kg): tended to decrease; also recorded: reduction trend
TIMP-1 relative mRNA expression level (TIMP-1 mRNA; [6]): 138.30 ± 30.39
TIMP-1 relative mRNA expression level (TIMP-1 mRNA; [7]): 124.80 ± 28.60
TGF-β relative mRNA expression level (TGF-β mRNA; [6]): 4.31 ± 0.69
TGF-β relative mRNA expression level (TGF-β mRNA; [7]): 5.37 ± 0.76
Collagen Type 1 relative mRNA expression level (Collagen Type 1 mRNA; [6]): 11.80 ± 1.78
Collagen Type 1 relative mRNA expression level (Collagen Type 1 mRNA; [7]): 14.09 ± 2.88

CCCCCC(O)/C=C/C=C\C/C=C\CCCCCCC(=O)O (stereo not drawn) [DS109, 15-HETrE]
Body Weight (UUO mice; [8]): 19.1 ± 0.9 g
Left Kidney Weight (UUO mice; [8]): 533 ± 138 mg
Left Kidney-to-Body Weight Ratio (UUO mice; [8]): 2.79 ± 0.65%
Right Kidney Weight (UUO mice; [8]): 137 ± 7 mg
Right Kidney-to-Body Weight Ratio (UUO mice; [8]): 0.71 ± 0.04%
Body Weight (UUO mice; [3]): 18.6 ± 0.6 g
Left Kidney Weight (UUO mice; [3]): 523 ± 91 mg
Left Kidney-to-Body Weight Ratio (UUO mice; [3]): 2.83 ± 0.50%
Right Kidney Weight (UUO mice; [3]): 135 ± 6 mg
Right Kidney-to-Body Weight Ratio (UUO mice; [3]): 0.73 ± 0.05%
Body Weight (UUO mice; [9]): 18.6 ± 0.7 g
Left Kidney Weight (UUO mice; [9]): 425 ± 105 mg
Left Kidney-to-Body Weight Ratio (UUO mice; [9]): 2.26 ± 0.53%
Right Kidney Weight (UUO mice; [9]): 130 ± 13 mg
Right Kidney-to-Body Weight Ratio (UUO mice; [9]): 0.70 ± 0.05%
Kidney hydroxyproline [1, 8]: 9.94 ± 2.02 μg/mg total protein
kidney hydroxyproline contents compared with the Vehicle group ([1]; 5 mg/kg PO QD Day 0-13, significance p<0.05): significant decreases
Kidney hydroxyproline [1, 3]: 13.94 ± 6.44 μg/mg total protein
kidney hydroxyproline contents compared with the Vehicle group ([1]; 50 mg/kg PO QD Day 0-13, significance p<0.05): no significant difference
Kidney hydroxyproline [1, 9]: 8.30 ± 1.04 μg/mg total protein
kidney hydroxyproline contents compared with the Vehicle group ([1]; 250 mg/kg PO QD Day 0-13, significance p<0.05): significant decreases
Sirius red-positive area ([2]; 5 mg/kg PO QD Day 0-13): 4.23 ± 1.90%
Sirius red-positive area (%) _Median ([2]; 5 mg/kg PO QD Day 0-13): 3.22 ± 1.47%
Sirius red-positive area ([2]; 50 mg/kg PO QD Day 0-13): 3.58 ± 1.04%
Sirius red-positive area (%) _Median ([2]; 50 mg/kg PO QD Day 0-13): 3.28 ± 1.41%
Sirius red-positive area ([2]; 250 mg/kg PO QD Day 0-13): 4.71 ± 0.96%
Sirius red-positive area (%) _Median ([2]; 250 mg/kg PO QD Day 0-13): 3.76 ± 0.81%
fibrosis area compared with the Vehicle group ([2]; 5 mg/kg PO QD Day 0-13, Mann-Whitney U test, trend p<0.1, 5 mg/kg): tended to decrease; also recorded: reduction trend
fibrosis area compared with the Vehicle group ([2]; 50 mg/kg PO QD Day 0-13, Bonferroni Multiple Comparison): tended to decrease
fibrosis area compared with the Vehicle group [2, 5]: tended to decrease; also recorded: reduction trend
fibrosis area compared with the Vehicle group ([2]; 250 mg/kg PO QD Day 0-13, Mann-Whitney U test, trend p<0.1, 250 mg/kg): tended to decrease; also recorded: reduction trend
TIMP-1 relative mRNA expression level (TIMP-1 mRNA; [10]): 153.60 ± 37.12
TIMP-1 relative mRNA expression level (TIMP-1 mRNA; [6]): 167.70 ± 122.60
TIMP-1 relative mRNA expression level (TIMP-1 mRNA; [11]): 180.90 ± 23.12
TGF-β relative mRNA expression level (TGF-β mRNA; [10]): 4.29 ± 0.93
TGF-β relative mRNA expression level (TGF-β mRNA; [6]): 6.01 ± 4.77
TGF-β relative mRNA expression level (TGF-β mRNA; [11]): 5.48 ± 0.36
Collagen Type 1 relative mRNA expression level (Collagen Type 1 mRNA; [10]): 10.76 ± 1.45
Collagen Type 1 relative mRNA expression level (Collagen Type 1 mRNA; [6]): 15.23 ± 11.52
Collagen Type 1 relative mRNA expression level (Collagen Type 1 mRNA; [11]): 13.88 ± 1.91
